Results as given in PubChem BioAssay (NCI).
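Exposure lasted 48 hours, with cells grown in 96-well plates and compounds tested at five concentrations. Here, GI50 denotes the concentration required for 50% inhibition of growth. At the TGI there is no net growth.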

Tests used:
Test in all cases: NCI-60 cell line screen, 48 h
786-0 renal = test system: 786-0 renal
A498 renal = test system: A498 renal
A549 NSCLC = test system: A549 NSCLC
ACHN renal = test system: ACHN renal
BT-549 breast = test system: BT-549 breast
CAKI-1 renal = test system: CAKI-1 renal
CCRF-CEM leukemia = test system: CCRF-CEM leukemia
COLO 205 colon = test system: COLO 205 colon
DU-145 prostate = test system: DU-145 prostate
EKVX NSCLC = test system: EKVX NSCLC
HCC-2998 colon = test system: HCC-2998 colon
HCT-116 colon = test system: HCT-116 colon
HCT-15 colon = test system: HCT-15 colon
HL-60(TB) leukemia = test system: HL-60(TB) leukemia
HOP-62 NSCLC = test system: HOP-62 NSCLC
HOP-92 NSCLC = test system: HOP-92 NSCLC
HS 578T breast = test system: HS 578T breast
HT29 colon = test system: HT29 colon
IGROV1 ovarian = test system: IGROV1 ovarian
K-562 leukemia = test system: K-562 leukemia
KM12 colon = test system: KM12 colon
LOX IMVI melanoma = test system: LOX IMVI melanoma
M14 melanoma = test system: M14 melanoma
MALME-3M melanoma = test system: MALME-3M melanoma
MCF7 breast = test system: MCF7 breast
MDA-MB-231 breast = test system: MDA-MB-231 breast
MDA-MB-435 = test system: MDA-MB-435
MDA-MB-468 breast = test system: MDA-MB-468 breast
MOLT-4 leukemia = test system: MOLT-4 leukemia
NCI-H226 lung = test system: NCI-H226 lung
NCI-H23 lung = test system: NCI-H23 lung
NCI-H460 lung = test system: NCI-H460 lung
NCI-H522 lung = test system: NCI-H522 lung
NCI/ADR-RES ovarian = test system: NCI/ADR-RES ovarian
OVCAR-3 ovarian = test system: OVCAR-3 ovarian
OVCAR-4 ovarian = test system: OVCAR-4 ovarian
OVCAR-5 ovarian = test system: OVCAR-5 ovarian
OVCAR-8 ovarian = test system: OVCAR-8 ovarian
PC-3 prostate = test system: PC-3 prostate
RPMI-8226 leukemia = test system: RPMI-8226 leukemia
RXF 393 renal = test system: RXF 393 renal
SF-268 CNS = test system: SF-268 CNS
SF-295 CNS = test system: SF-295 CNS
SF-539 CNS = test system: SF-539 CNS
SK-MEL-2 melanoma = test system: SK-MEL-2 melanoma
SK-MEL-28 melanoma = test system: SK-MEL-28 melanoma
SK-MEL-5 melanoma = test system: SK-MEL-5 melanoma
SK-OV-3 ovarian = test system: SK-OV-3 ovarian
SN12C renal = test system: SN12C renal
SNB-19 CNS = test system: SNB-19 CNS
SNB-75 CNS = test system: SNB-75 CNS
SR leukemia = test system: SR leukemia
SW-620 colon = test system: SW-620 colon
T-47D breast = test system: T-47D breast
TK-10 renal = test system: TK-10 renal
U251 CNS = test system: U251 CNS
UACC-257 melanoma = test system: UACC-257 melanoma
UACC-62 melanoma = test system: UACC-62 melanoma
UO-31 renal = test system: UO-31 renal

What does the source list for `Cc1ccc(C(=O)NN2C(=O)/C(=C/C=C/c3ccc([N+](=O)[O-])o3)SC2=S)cc1`?
GI50 (786-0 renal): 451 nM; TGI (786-0 renal): 1620 nM; GI50 (A498 renal): 9160 nM; TGI (A498 renal): 22900 nM; GI50 (A549 NSCLC): 2180 nM; TGI (A549 NSCLC): 5900 nM; GI50 (ACHN renal): 684 nM; TGI (ACHN renal): 1860 nM; GI50 (BT-549 breast): 218 nM; TGI (BT-549 breast): 705 nM; GI50 (CAKI-1 renal): 911 nM; TGI (CAKI-1 renal): 2190 nM; GI50 (CCRF-CEM leukemia): 238 nM; TGI (CCRF-CEM leukemia): 826 nM; GI50 (COLO 205 colon): 348 nM; TGI (COLO 205 colon): 1070 nM; GI50 (DU-145 prostate): 1500 nM; TGI (DU-145 prostate): 2920 nM; GI50 (EKVX NSCLC): 543 nM; TGI (EKVX NSCLC): 1850 nM; GI50 (HCC-2998 colon): 486 nM; TGI (HCC-2998 colon): 1720 nM; GI50 (HCT-116 colon): 139 nM; TGI (HCT-116 colon): 290 nM; GI50 (HCT-15 colon): 125 nM; TGI (HCT-15 colon): 295 nM; GI50 (HL-60(TB) leukemia): 1880 nM; TGI (HL-60(TB) leukemia): 10500 nM; GI50 (HOP-62 NSCLC): 1600 nM; TGI (HOP-62 NSCLC): 3120 nM; GI50 (HOP-92 NSCLC): 245 nM; TGI (HOP-92 NSCLC): 893 nM; GI50 (HS 578T breast): 1860 nM; TGI (HS 578T breast): 6540 nM; GI50 (HT29 colon): 222 nM; TGI (HT29 colon): 542 nM; GI50 (IGROV1 ovarian): 811 nM; TGI (IGROV1 ovarian): 2110 nM; GI50 (K-562 leukemia): 188 nM; TGI (K-562 leukemia): 3480 nM; GI50 (KM12 colon): 1160 nM; TGI (KM12 colon): 4490 nM; GI50 (LOX IMVI melanoma): 179 nM; TGI (LOX IMVI melanoma): 352 nM; GI50 (M14 melanoma): 202 nM; TGI (M14 melanoma): 436 nM; GI50 (MALME-3M melanoma): 177 nM; TGI (MALME-3M melanoma): 378 nM; GI50 (MCF7 breast): 413 nM; TGI (MCF7 breast): 1890 nM; GI50 (MDA-MB-231 breast): 185 nM; TGI (MDA-MB-231 breast): 373 nM; GI50 (MDA-MB-435): 267 nM; TGI (MDA-MB-435): 800 nM; GI50 (MDA-MB-468 breast): 1500 nM; TGI (MDA-MB-468 breast): 3120 nM; GI50 (MOLT-4 leukemia): 294 nM; TGI (MOLT-4 leukemia): 2670 nM; GI50 (NCI-H226 lung): 509 nM; TGI (NCI-H226 lung): 1240 nM; GI50 (NCI-H23 lung): 337 nM; TGI (NCI-H23 lung): 1170 nM; GI50 (NCI-H460 lung): 399 nM; TGI (NCI-H460 lung): 1570 nM; GI50 (NCI-H522 lung): 185 nM; TGI (NCI-H522 lung): 363 nM; GI50 (NCI/ADR-RES ovarian): 1220 nM; TGI (NCI/ADR-RES ovarian): 2880 nM; GI50 (OVCAR-3 ovarian): 752 nM; TGI (OVCAR-3 ovarian): 2630 nM; GI50 (OVCAR-4 ovarian): 1600 nM; TGI (OVCAR-4 ovarian): 3100 nM; GI50 (OVCAR-5 ovarian): 1430 nM; TGI (OVCAR-5 ovarian): 2790 nM; GI50 (OVCAR-8 ovarian): 292 nM; TGI (OVCAR-8 ovarian): 1020 nM; GI50 (PC-3 prostate): 1140 nM; TGI (PC-3 prostate): 3000 nM; GI50 (RPMI-8226 leukemia): 267 nM; TGI (RPMI-8226 leukemia): 1170 nM; GI50 (RXF 393 renal): 789 nM; TGI (RXF 393 renal): 2140 nM; GI50 (SF-268 CNS): 1960 nM; TGI (SF-268 CNS): 4820 nM; GI50 (SF-295 CNS): 1760 nM; TGI (SF-295 CNS): 3480 nM; GI50 (SF-539 CNS): 251 nM; TGI (SF-539 CNS): 718 nM; GI50 (SK-MEL-2 melanoma): 283 nM; TGI (SK-MEL-2 melanoma): 904 nM; GI50 (SK-MEL-28 melanoma): 1090 nM; TGI (SK-MEL-28 melanoma): 2310 nM; GI50 (SK-MEL-5 melanoma): 337 nM; TGI (SK-MEL-5 melanoma): 1240 nM; GI50 (SK-OV-3 ovarian): 1770 nM; TGI (SK-OV-3 ovarian): 3350 nM; GI50 (SN12C renal): 207 nM; TGI (SN12C renal): 535 nM; GI50 (SNB-19 CNS): 1610 nM; TGI (SNB-19 CNS): 3010 nM; GI50 (SNB-75 CNS): 1300 nM; TGI (SNB-75 CNS): 3170 nM; GI50 (SR leukemia): 46.8 nM; TGI (SR leukemia): > 100000 nM; GI50 (SW-620 colon): 181 nM; TGI (SW-620 colon): 389 nM; GI50 (T-47D breast): 1730 nM; TGI (T-47D breast): 3480 nM; GI50 (TK-10 renal): 1680 nM; TGI (TK-10 renal): 3580 nM; GI50 (U251 CNS): 701 nM; TGI (U251 CNS): 1970 nM; GI50 (UACC-257 melanoma): 1670 nM; TGI (UACC-257 melanoma): 3550 nM; GI50 (UACC-62 melanoma): 378 nM; TGI (UACC-62 melanoma): 1210 nM; GI50 (UO-31 renal): 1210 nM; TGI (UO-31 renal): 2450 nM
